Source: BindingDB's records for doi:10.1016/s0960-894x(00)00462-5 (Smithkline Beecham Pharmaceuticals, 2001)
pIC50: −log10 of the molar value.

What was measured:
[1] = biological target: Capsid scaffolding protein / assemblin protease (Human cytomegalovirus) (UniProt P16753); assay: In vitro inhibitory activity against human cytomegalovirus (hCMV) protease in the presence of zinc
[2] = biological target: Capsid scaffolding protein / assemblin protease (Human cytomegalovirus) (UniProt P16753); assay: In vitro inhibitory activity against human cytomegalovirus (hCMV) protease in the absence of zinc
[3] = biological target: Capsid scaffolding protein / assemblin protease (Human cytomegalovirus) (UniProt P16753); assay: In vitro inhibitory activity against human cytomegalovirus (hCMV) protease in the presence of zinc; remark: listed apart in the source

Capsid scaffolding protein / assemblin protease (Human cytomegalovirus), sequence (P16753 whole entry, looked up): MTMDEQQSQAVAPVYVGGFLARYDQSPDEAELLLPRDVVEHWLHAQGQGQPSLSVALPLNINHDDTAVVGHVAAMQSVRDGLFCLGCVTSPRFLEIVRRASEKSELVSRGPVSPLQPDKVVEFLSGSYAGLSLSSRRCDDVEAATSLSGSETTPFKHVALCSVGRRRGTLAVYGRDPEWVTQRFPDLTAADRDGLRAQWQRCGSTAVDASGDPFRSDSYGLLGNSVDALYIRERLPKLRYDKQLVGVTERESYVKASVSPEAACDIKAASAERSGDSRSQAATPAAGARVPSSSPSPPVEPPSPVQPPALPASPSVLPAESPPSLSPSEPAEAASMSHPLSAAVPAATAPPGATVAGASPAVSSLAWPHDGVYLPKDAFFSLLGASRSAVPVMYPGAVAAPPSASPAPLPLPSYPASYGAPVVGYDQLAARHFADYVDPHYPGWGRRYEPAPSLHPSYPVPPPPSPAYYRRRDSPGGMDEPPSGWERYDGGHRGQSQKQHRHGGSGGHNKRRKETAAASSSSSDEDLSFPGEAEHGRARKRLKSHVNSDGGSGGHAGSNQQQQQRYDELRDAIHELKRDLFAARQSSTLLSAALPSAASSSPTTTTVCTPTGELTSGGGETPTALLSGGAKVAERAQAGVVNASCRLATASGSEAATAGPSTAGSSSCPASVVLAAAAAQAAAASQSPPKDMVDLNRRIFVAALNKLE

pIC50 [1] | pIC50 [2] | pIC50 [3] | SMILES
4.39 | 3.90 | – | CCCCCCCCSc1ncc(Cc2cn(CC(=O)NC(Cc3ccccc3)C(=O)OCc3ccccc3)cn2)[nH]1 (stereo not drawn) [2-{2-[4-(2-Octylsulfanyl-1H-imidazol-4-ylmethyl)-imidazol-1-yl]-acetylamino}-3-phenyl-propionic acid benzyl ester]
– | 4.82 | 5.30 | CCCCCCCCSc1ncc(Cc2cn(CC(=O)NC(CC(=O)OCc3ccccc3)C(=O)OCc3ccccc3)cn2)[nH]1 (stereo not drawn) [2-{2-[4-(2-Octylsulfanyl-1H-imidazol-4-ylmethyl)-imidazol-1-yl]-acetylamino}-succinic acid dibenzyl ester]
– | < 3.82 | 5.15 | CCCCCCCCSc1ncc(Cc2cn(Cc3ccc(C(=O)OC)cc3)cn2)[nH]1 [4-[4-(2-Octylsulfanyl-1H-imidazol-4-ylmethyl)-imidazol-1-ylmethyl]-benzoic acid methyl ester]
– | < 3.82 | 4.82 | CCCCCCCCSc1ncc(Cc2cn(Cc3ccc(C(=O)NCC4CC4)cc3)cn2)[nH]1 [N-Cyclopropylmethyl-4-[4-(2-octylsulfanyl-1H-imidazol-4-ylmethyl)-imidazol-1-ylmethyl]-benzamide]
